In ChEMBL document CHEMBL1201862, “PubChem BioAssay data set” (2004):
Activity calls are given as the source filed them.

Tests used:
[1] = target: T1, Low molecular weight phosphotyrosine protein phosphatase (Homo sapiens, UniProt P24666); assay type: functional; conditions: read-out: IC50_Mean;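 note: Dose-response confirmation assay measuring inhibition of LMPTP enzyme activity by fluorescence intensity read-out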
T1 sequence (P24666 whole entry): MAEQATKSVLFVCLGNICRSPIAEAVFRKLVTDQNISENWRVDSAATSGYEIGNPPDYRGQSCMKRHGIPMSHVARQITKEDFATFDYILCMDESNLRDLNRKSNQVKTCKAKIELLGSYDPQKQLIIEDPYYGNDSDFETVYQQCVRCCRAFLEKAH

Beta-lactamase [2] = target: Beta-lactamase (Salmonella choleraesuis (strain SC-B67), UniProt Q5J463)
Beta-lactamase [3] = target: Beta-lactamase (Pseudomonas aeruginosa, UniProt Q79MP6);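 note: biochemical dose-response test of metallo-beta-lactamase enzyme inhibition, read out by epi-absorbance; purified recombinant IMP-1 metallo-beta-lactamase with nitrocefin as substrate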
[4] = HGIII-sPLA2 enzyme inhibition potency – biochemical, QFRET, IC50, dose response (AID 743457);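 note: green fluorescence rise as the enzyme cleaves BODIPY PC-A2 in liposomes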
[5] = toxicity toward HepG2 liver cells – cell-based, plate reader, cherry-pick, antagonist series, cytotoxicity control, dose response (AID 743416); assay type: functional
[6] = blockers of bursicon-stimulated LGR2 cAMP reporter – cell-based, HEK293, CRE-luciferase reporter, cherry pick, set 2, dose response (AID 743343); assay type: functional;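 note: transfected cells were stimulated with diluted bursicon conditioned medium after compound addition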
[7] = A549 cell cytotoxicity, dose response, cytotoxicity control, plate reader, cherry-pick, antagonist series (AID 743412); assay type: functional, cell-based
[8] = blockade of melanocortin 4 receptor signaling – cell-based, plate reader, cherry pick, counter-screen for LGR2 antagonist project, dose response (AID 743444); assay type: functional;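 note: transfected HEK 293 cells stimulated with alpha-MSH peptide; potency of inhibitors of the alpha-MSH evoked signal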
[9] = viability loss in HEK293 cells – cell-based, plate reader, cherry-picked samples, cytotoxicity control, dose response (AID 743446); assay type: functional
Major prion protein = Major prion protein (Homo sapiens, UniProt P04156); assay type: functional, cell-based
cells [10] = experiment: cells
[11] = viability loss in CEM21 cells – cell-based, CellTiter-Glo luminescence, cherry-picked, cytotoxicity control for viral fusion inhibitor project, dose response (AID 652042); assay type: functional;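 note: potency for signal decrease meaning cytotoxicity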
[12] = HIV-1 AD8 envelope cell-cell fusion blockers – cherry-pick, dose response (AID 652062); assay type: functional, cell-based;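 note: luciferase signal from cell-cell fusion driven by HIV-1 clade B AD8 Env; potency is for inhibitors of fusion seen as a drop in luminescence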
[13] = blockers of HIV-1 ZM109 envelope-driven cell-cell fusion – HeLa effector, CEM target cells, luciferase, cherry-pick, dose response (AID 652058); assay type: functional, cell-based;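 note: luciferase signal from HIV-1 Env mediated cell-cell fusion of effector and target cells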
[14] = blockers of HIV-1 envelope-mediated cell-cell fusion – cherry-pick, dose response (AID 652057); assay type: functional, cell-based
cells [15] = assay type: functional, cell-based
cells [16] = assay type: functional, cell-based; remark: listed apart in the source
[17] = target: T2, Trace amine-associated receptor 1 (Homo sapiens, UniProt Q96RJ0); experiment: Counterscreen for agonists of the human trace amine associated receptor 1 (hTAAR1): Fluorescence-based cell-based high throughput dose response assay to identify hTAAR1 agonist that also desensitize TAAR1 receptor response.; assay type: functional
T2 sequence (Q96RJ0 whole entry): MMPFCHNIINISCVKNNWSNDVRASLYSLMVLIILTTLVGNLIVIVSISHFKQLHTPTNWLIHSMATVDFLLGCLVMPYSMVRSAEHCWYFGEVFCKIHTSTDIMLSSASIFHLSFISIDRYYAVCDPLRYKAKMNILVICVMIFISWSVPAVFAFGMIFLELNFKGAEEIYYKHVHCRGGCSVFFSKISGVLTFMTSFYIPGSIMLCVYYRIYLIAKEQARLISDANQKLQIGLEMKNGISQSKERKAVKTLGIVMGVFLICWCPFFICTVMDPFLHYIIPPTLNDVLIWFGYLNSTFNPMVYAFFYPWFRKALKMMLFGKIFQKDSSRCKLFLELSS

[18] = target: T2, Trace amine-associated receptor 1; experiment: Fluorescence-based cell-based high throughput dose response assay to identify agonists of the human trace amine associated receptor 1 (TAAR1).; assay type: functional
Albumin = Albumin (Bos taurus, UniProt P02769); experiment: Counterscreen for inhibitors of T-cell receptor (TCR)-CD3 interaction: Fluorescence-based biochemical high throughput dose response assay to identify inhibitors of T-cell receptor (TCR)-CD3 interaction using a TAMRA-labeled BSA probe.; assay type: functional

Which results are given for `CCn1c(=S)sc2c(=O)n(CC(=O)Nc3ccccc3C(F)(F)F)c(C)nc21`?
IC50 [1]: 16.2 µM (active); IC50 (Beta-lactamase [2]): > 59.6 µM (inactive); IC50 (Beta-lactamase [3]): 22.7 µM (inactive)

With `COc1ccc(Cl)cc1C(=O)NN=C(S)NC1CCCC1` as the molecule, how does the IC50 [4] read?
Its IC50 is > 122 µM (inactive).

Which results are given for `O=C(Nc1ccc(N2CCN(C(=O)c3ccccc3)CC2)c(Cl)c1)c1ccc(Br)o1`?
AC50 [5]: 35 µM (active); AC50 [6]: 16.6 µM (active); AC50 [7]: 34.9 µM (active); AC50 [8]: 14.9 µM (active); AC50 [9]: 21.5 µM (active)

Which results are given for `O=C(O)c1ccccc1SCc1csc(-c2ccccc2)n1`?
IC50 (Major prion protein): 6.49 µM (active); IC50 (cells [10]): > 138 µM (inactive)

Which results are given for `CCOc1ccc(C(=O)C2=C(O)C(=O)N(c3ccccn3)C2c2ccccc2F)c(C)c1` (stereo not drawn)?
IC50 (Major prion protein): 5.58 µM (active); IC50 (cells [10]): > 138 µM (inactive)

With `Cc1ccc(S(=O)(=O)Nc2ccc3c(c2)C(=O)N([C@H](C)CO)C[C@@H](C)[C@@H](CN(C)Cc2ccc(-c4ccccc4)cc2)O3)cc1` as the molecule, how does the AC50 [11] read?
The AC50 was 21.8 µM (active).

What about the AC50 [12] of the same molecule?
Its AC50 is 17.4 µM (active).

And the AC50 [13]?
Its AC50 is 16.6 µM (active).

What about the AC50 [14] of the same molecule?
Its AC50 is 18 µM (active).

Which results are given for `N#C[C@H]1[C@@H](c2ccc(-c3ccccc3)cc2)[C@@H](CO)N1S(=O)(=O)Cc1ccccc1`?
AC50 [11]: 41.5 µM (active); AC50 [12]: 4.94 µM (active); AC50 [14]: 1.93 µM (active)

Which results are given for `COc1ccccc1CCn1cnc(-c2ccccc2OC)c1C(C)C`?
AC50 [5]: 29.8 µM (active); EC50 (cells [15]): > 29.9 µM (inactive); AC50 [8]: 29.4 µM (active); IC50 (cells [16]): 11.8 µM (inactive); AC50 [9]: > 52 µM (inactive); IC50 [17]: 3.82 µM (active); EC50 [18]: 5.14 µM (active)

Which IC50 (Albumin) does the source give for `O=C(NNC(=O)c1c(O)c2ccccc2[nH]c1=O)c1ccccc1` here?
The IC50 was > 94.1 µM (inactive).
